{"source": "patent US20180194822A1", "about": "“DISRUPTION OF THE INTERACTION BETWEEN AMYLOID BETA PEPTIDE AND DIETARY LIPIDS” (THE TRUSTEES OF COLUMBIA UNIVERSITY IN THE CITY OF NEW YORK, priority 2015, published 2018)", "key": {"APPsw+ mice [1]": {"system": "APPsw+ mice", "assay": "Nesting behavior after intranasal SDPC", "type": "in vivo, mouse", "conditions": "10 days intranasal low dose 0.5 mg/kg every other day, vs saline treated APPsw+", "experimental": "FIGS. 4A-4D. 10 days treatment with low dose SDPC. (A) After 10 days treatment (Tx) with low dose phosphatidylcholine (PC) containing docosahexaenoyl (22:6) and stearoyl (18:0) acyl chains, 18:0-22:6 PC; 1-stearoyl-2-docosahexaenoyl-sn-glycero-3-phosphocholine (CAS Number 59403-52-0; Synonyms: 1-octadecanoyl-2-(4Z,7Z,10Z,13Z,16Z,19Z-docosahexaenoyl)-sn-glycero-3-phosphocholine and PC(18:0/22:6(4Z,7Z,10Z,13Z,16Z,19Z))) (SDPC) intranasally, nesting score was assessed as described before (114). The number of nestlettes (from 3 initially placed in cage) was estimated and exact weight of remaining nestlettes was determined in grams (g) from initial 3 nestlettes (approximately 2 g). (B) Activity during novel object recognition (NOR) training was assessed after 10 days intranasal SDPC. […] (D) Activity during Open Field testing 24 hours after NOR training (note, no difference in novel object discrimination (NOD) index was found. Standard error is shown for means of Saline treated APPsw+(control) (n=4); SDPC treated APPsw+(n=5) and wild type receiving no treatment (n=4). Significance was determined for […] using Student's t-test.\nFIGS. 5A-5B. […] (A) After 30 days treatment (Tx) with low dose SDPC intranasally, nesting score was assessed as described (114). […] (B) Activity during NOR training was assessed after 10 days intranasal SDPC. […] Significance was determined for […] using Student's t-test. […]"}, "APPsw+ mice [2]": {"system": "APPsw+ mice", "assay": "Novel object recognition (NOR) and activity during NOR training after intranasal SDPC", "type": "in vivo, mouse", "experimental": "(§1) FIGS. 4A-4D. 10 days treatment with low dose SDPC. (A) After 10 days treatment (Tx) with low dose phosphatidylcholine (PC) containing docosahexaenoyl (22:6) and stearoyl (18:0) acyl chains, 18:0-22:6 PC; 1-stearoyl-2-docosahexaenoyl-sn-glycero-3-phosphocholine (CAS Number 59403-52-0; Synonyms: 1-octadecanoyl-2-(4Z,7Z,10Z,13Z,16Z,19Z-docosahexaenoyl)-sn-glycero-3-phosphocholine and PC(18:0/22:6(4Z,7Z,10Z,13Z,16Z,19Z))) (SDPC) intranasally, nesting score was assessed as described before (114). The number of nestlettes (from 3 initially placed in cage) was estimated and exact weight of remaining nestlettes was determined in grams (g) from initial 3 nestlettes (approximately 2 g). (B) Activity during novel object recognition (NOR) training was assessed after 10 days intranasal SDPC. Grooming behavior, free rearing, wall rearing and center crossing events are shown and were summed in total events. (C) Time spent with each identical object during NOR training. (D) Activity during Open Field testing 24 hours after NOR training (note, no difference in novel object discrimination (NOD) index was found. Standard error is shown for means of Saline treated APPsw+(control) (n=4); SDPC treated APPsw+(n=5) and wild type receiving no treatment (n=4). Significance was determined for p>0.05 using Student's t-test.\nFIGS. 5A-5B. Nesting and activity after 30 days treatment with escalating dose SDPC. (A) After 30 days treatment (Tx) with low dose SDPC intranasally, nesting score was assessed as described (114). The number of nestlettes remaining (from 3 initially placed in cage) was estimated and exact weight of remaining nestlettes was determined in grams (g remaining) from initial 3 nestlettes (approximately 2 g). (B) Activity during NOR training was assessed after 10 days intranasal SDPC. Grooming behavior, free rearing, wall rearing and center crossing events were summed in total events. Standard error is shown for means of Saline treated APPsw+(control) (n=4); SDPC treated APPsw+(n=5) and wild type receiving no treatment (n=4). Significance was determined for […] using Student's t-test.\nFIGS. 6A-6B. 30 days treatment with escalating dose SDPC. (A) Mice were placed in a box with two identical objects for 10 minutes on the training day 1. […] One object was replaced with a novel object for testing (NOD index). The same data is shown to scale in FIG. 6B (Testing (immediate)). Twenty-four hours later (Testing (24 hours)), mice were placed in the same context with one of the original identical objects (Familiar) and a second novel object (Novel). The time spent with each object was recorded. (B) For testing, novel object discrimination (NOD index) is assessed using the equation [(time novel)/(time familiar+time novel)].\nNOD index of 0.5 represents equal time with each object. NOD>0.5 represents more time spent with novel object. Standard error is shown for means of Saline treated APPsw+(control) (n=4); SDPC treated APPsw+(n=5) and wild type receiving no treatment (n=4). Significance was determined for p>0.05 using Student's t-test.\nSDPC was obtained from Avanti Polar Lipids (850472C) in chloroform, dried under vacuum conditions and resuspended in 0.9% saline (0.9% sodium chloride injection, USP, NDC 0409-7983-61, Hospira) containing 0.2% (weight:volume) methyl cellulose (average Mn 40,000, viscosity: 400 cP, CAS 9004-67-5, Sigma-Aldrich 274429) to aid in solubilization. A control solution of 0.9% saline containing 0.2% methyl cellulose was prepared at the same time without SDPC. A concentration of 3 mg/ml was used for doses 1-15 and 12 mg/ml was used for doses 16-18 (FIG. 3). Brief (3-5 minutes) bath sonication was used to improve solubility of 12 mg/ml concentration.\nMice were treated for 10 days at a low dose of SDPC intranasally administered 2.5 uL each nostril (5 μL total dose) for 0.5 mg/kg every other day assuming average mouse weight of 30 g (0.03 kg) (FIG. 3). […]"}, "APPsw+ mice [3]": {"system": "APPsw+ mice", "assay": "Open Field testing after intranasal SDPC", "type": "in vivo, mouse", "conditions": "10 days intranasal low dose; does not reach significance", "experimental": "as §1, with “t-test. […]” for “t-test.”"}, "APPsw+ mice [4]": {"system": "APPsw+ mice", "assay": "Novel object recognition (NOR) and activity during NOR training after intranasal SDPC", "type": "in vivo, mouse", "conditions": "30 days intranasal escalated dose (0.5 then 2 mg/kg), SDPC vs saline treated APPsw+"}, "[5]": {"target": "T1, Aβ42 peptide fluorescently tagged with FAM (Homo sapiens, UniProt P05067)", "T1 construct": "SensoLyte Fluorescent β-Amyloid1-42 Sampler Kit, Anaspec; purchased Anaspec SensoLyte Fluorescent β-Amyloid1-42 Sampler Kit (catalogue number not given)", "assay": "Lipid binding assay: Aβ42-FAM on lipid-coated maleic anhydride plates", "from_the_text": "Maleic Anhydride Activated plates (Pierce Amine-binding, 96-well plates, Thermo Scientific) were washed in wash buffer (PBS: Phosphate buffered saline, 0.15 M sodium chloride, pH 7.2 containing 0.05% Tween-20 Detergent, PBST, Thermo Scientific) 4 times to activate reactive maleic anhydride functional group. Amine containing lipids were PE containing docosahexaenoyl (22:6) and stearoyl (18:0) acyl chains (22:6/18:0 PE) or two stearoyl acyl chains (di18:0 PE) were from Avanti Polar Lipids. 22:6/18:0 PE was obtained in chloroform, dried down and solubilized at 200 pmol/μL in 1% n-octylglucoside (NOG, Santa Cruz) in PBS and sonicated for 5 minutes. di18:0 PE was obtained as a powder, solubilized at 200 pmol/μl in 1% NOG and bath sonicated for 5 minutes. […] Plates were then washed 4 times in PBST and fluorescence was detected using Tecan Infinite 200 at wavelengths 494/521 (excitation, emission) using the Optimal Gain setting. […]\n(§2) Lipid containing long chain polyunsaturated fatty acid 22:6, docosahexaenoic acid (DHA) and an amine containing headgroup, phosphatidylethanoloamine (PE) was bound to maleic anhydride activated plates which bind to free primary amine functional groups at neutral and alkaline pH. […] Specific binding was calculated by subtracting background binding of di18:0 PE."}, "[6]": {"target": "Aβ:ApoE:lipid binding complex (Homo sapiens, UniProt P05067)", "assay": "ApoE binding assay: fluorescent Aβ42 on ApoE-coated plates in presence of lipid", "design": "SensoLyte Fluorescent β-Amyloid1-42 Sampler Kit, Anaspec; HiLyte Fluor (fluorescent label); purchased ApoE: rPeptide; labelled Aβ: Anaspec", "conditions": "only at very high concentrations of Aβ", "experimental": "Plates were prepared as above and incubated with a constant amount of apolipoprotein E (ApoE, rPeptide) at 12.5 pmol/well FIG. 2A or 4 pmol/well FIG. 2B for 1 hour at room temperature with shaking. Plates were then blocked for 1 hour and washed with PB ST. Aβ labled with HiLyte (Anaspec) was prepared as above and mixed with increasing amount of lipid in constant concentration of NOG (0.0034%) in SuperBlock Blocking buffer and incubated overnight at 4° C. Binding was read as above at 503/528 excitation/emission).\nAssays were done in triplicate wells and reported as mean+/−standard error. Binding kinetics and best fit curve fitting were accomplished using Prism Graphpad software.\nSpecific binding was determined by subtracting non-specific binding to the plate in absence of ApoE (no ApoE, 0)."}, "[7]": {"target": "T2, Aβ42-FAM bound to lipids containing 22:6 (Homo sapiens, UniProt P05067)", "T2 construct": "SensoLyte Fluorescent β-Amyloid1-42 Sampler Kit, Anaspec; purchased Anaspec SensoLyte Fluorescent β-Amyloid1-42 Sampler Kit (catalogue number not given)", "assay": "Competition of Aβ42-FAM binding to plate-bound 22:6 lipid", "conditions": "competitor 5×, 1 μM", "from_the_text": "Maleic Anhydride Activated plates (Pierce Amine-binding, 96-well plates, Thermo Scientific) were washed in wash buffer (PBS: Phosphate buffered saline, 0.15 M sodium chloride, pH 7.2 containing 0.05% Tween-20 Detergent, PBST, Thermo Scientific) 4 times to activate reactive maleic anhydride functional group. Amine containing lipids were PE containing docosahexaenoyl (22:6) and stearoyl (18:0) acyl chains (22:6/18:0 PE) or two stearoyl acyl chains (di18:0 PE) were from Avanti Polar Lipids. […] Plates were then washed 4 times in PBST and fluorescence was detected using Tecan Infinite 200 at wavelengths 494/521 (excitation, emission) using the Optimal Gain setting.\nScrambled Aβ or unlabeled Aβ42 peptides (Anaspec) were diluted to 100 μM as above and then diluted in SuperBlock Blocking buffer to 1 μM, incubated for 1 hour at room temperature. Plates were washed and FAM fluorescence was read as above.\nas §2"}, "[8]": {"conditions": "30 days intranasal escalated dose"}}, "note": "Entries after “also recorded” stand apart in the source; their conditions may differ.", "data": [{"compound": "CC/C=C\\C/C=C\\C/C=C\\C/C=C\\C/C=C\\C/C=C\\CCC(=O)O[C@H](COC(=O)CCCCCCCCCCCCCCCCC)COP(=O)([O-])OCC[N+](C)(C)C", "note": "[SDPC, 1-stearoyl-2-docosahexaenoyl-sn-glycero-3-phosphocholine]", "values": [{"measurement": "nesting behavior", "setting": "APPsw+ mice [1]", "value": "trend toward improvement; also recorded: non-significant trend for improvement"}, {"measurement": "NOR discrimination (NOD index), tested 24 hours after training", "setting": "APPsw+ mice [2]; 10 days intranasal low dose", "value": "no discrimination was found; also recorded: no difference"}, {"measurement": "activity during NOR training (wall rearing, free rearing, total activity level)", "setting": "APPsw+ mice [2]; 10 days intranasal low dose 0.5 mg/kg every other day, vs saline treated APPsw+, 0.5 mg/kg", "value": "trend toward improvement; also recorded: non-significant trend for improvement"}, {"measurement": "exploration: time spent with identical objects during NOR training", "setting": "APPsw+ mice [2]; 10 days intranasal low dose 0.5 mg/kg every other day, 0.5 mg/kg", "value": "trend toward improved exploratory behavior; also recorded: non-significant trend toward exploration activity"}, {"measurement": "NOR deficits: time spent with a novel object", "setting": "APPsw+ mice [2]; [8]", "value": "significant amelioration"}, {"measurement": "novel object discrimination index (NOD index)", "setting": "APPsw+ mice [2]; [8]", "value": "significant changes were not observed; also recorded: trend for amelioration"}, {"measurement": "discrimination of one displaced identical object (hippocampal function), training day 2", "setting": "APPsw+ mice [2]; 30 days intranasal escalating dose", "value": "no discrimination was determined"}, {"measurement": "activity in the open field test following NOR testing", "setting": "APPsw+ mice [3]", "value": "continued improvement of activity level; also recorded: restored to the level of wild type non-treated mice"}, {"measurement": "number of wall rears and total activity events", "setting": "APPsw+ mice [4]", "value": "significant improvement"}]}, {"compound": "CCCCCCCCCCCCCCCCCC(=O)OC[C@H](COP(=O)(O)OCCN)OC(=O)CCCCCCCCCCCCCCCCC", "note": "[di18:0 PE]", "values": [{"measurement": "binding of Aβ42-FAM to plate-bound lipid", "setting": "[5]; for di18:0: concentrations 10,000 pmol/well and below", "value": "very low binding activity"}, {"measurement": "binding of Aβ42-FAM to plate-bound lipid at the highest concentrations", "setting": "[5]; highest lipid concentrations (above 10,000 pmol/well)", "value": "modest binding"}, {"measurement": "Aβ42-FAM binding to apoE in presence of lipid", "setting": "[6]", "value": "only very minimally"}]}, {"compound": "unlabeled Aβ42 peptide: unlabeled Aβ42 peptide (Anaspec) used as competitor", "values": [{"measurement": "disruption of Aβ42-FAM binding to 22:6 lipid by competitor peptide", "setting": "[7]", "value": "competitively disrupted"}]}]}
